Results: the NIST ThermoML archive (doi:10.1021/acs.jced.5b00613)

Test: xn = mol fraction of the nth substance listed
Conditions: Liquid, Vibrating tube method

CCCCCCCCCC [decane] + CCCCCC
mass density [kg/m3]
Conditions	100 kPa	1000 kPa	5000 kPa	10000 kPa	20000 kPa	30000 kPa	40000 kPa	50000 kPa	60000 kPa
278.15 K, x2 = 0.1992	732.4	733	735.8	739.2	745.6	751.5	756.9	761.9	767
278.15 K, x2 = 0.3968	721.4	722.1	725.1	728.7	735.1	741.4	747	752.2	757.4
278.15 K, x2 = 0.4978	715.4	716	719.2	722.8	729.5	735.7	741.4	746.8	752
278.15 K, x2 = 0.5957	708.5	709.1	712.3	716	722.8	729.3	735.1	740.6	745.8
278.15 K, x2 = 0.7978	692.6	693.3	696.8	700.6	707.9	714.7	720.8	726.4	731.9
298.15 K, x2 = 0.1992	716.8	717.5	720.7	724.6	731.7	738.1	744	749.6	755
298.15 K, x2 = 0.3968	705.6	706.3	709.7	713.8	721	727.9	734.2	739.9	745.4
298.15 K, x2 = 0.4978	699.1	699.6	703.1	707.3	714.8	721.7	728	733.8	739.4
298.15 K, x2 = 0.5957	692.1	692.7	696.2	700.5	708.2	715.2	721.6	727.6	733.3
298.15 K, x2 = 0.7978	675.5	676.3	680.3	684.8	693	700.4	707.2	713.4	719.3
323.15 K, x2 = 0.1992	697.5	698.6	702.3	706.7	714.8	722.1	728.6	734.9	740.7
323.15 K, x2 = 0.3968	685.4	686.5	690.5	695.3	703.7	711.3	718.2	724.6	730.6
323.15 K, x2 = 0.4978	678.2	679.4	683.6	688.3	697.1	704.9	711.9	718.5	724.6
323.15 K, x2 = 0.5957	670.9	672.1	676.3	681.3	690.3	698.3	705.5	712.1	718.4
323.15 K, x2 = 0.7978	653.4	654.6	659.3	664.7	674.3	682.8	690.4	697.4	703.9
348.15 K, x2 = 0.1992	677	678.1	682.5	687.7	697.1	705.3	712.7	719.5	725.8
348.15 K, x2 = 0.3968	–	665.7	670.4	676	685.8	694.4	702.2	709.3	715.9
348.15 K, x2 = 0.4978	–	658.2	663.2	668.8	679	687.8	695.7	703	709.7
348.15 K, x2 = 0.5957	–	650.3	655.5	661.4	671.9	681	689.1	696.4	703.2
348.15 K, x2 = 0.7978	–	631.9	637.5	644	655.3	665	673.6	681.4	688.5
373.15 K, x2 = 0.1992	–	657.7	663	669	679.9	689.3	697.6	705	711.8
373.15 K, x2 = 0.3968	–	645	650.7	657.1	668.5	678.3	687	694.8	701.9
373.15 K, x2 = 0.4978	–	636.7	642.6	649.4	661.3	671.4	680.2	688.2	695.5
373.15 K, x2 = 0.5957	–	628.1	634.4	641.4	653.7	664.1	673.2	681.3	688.8
373.15 K, x2 = 0.7978	–	608.4	615.4	623.2	636.6	647.8	657.5	666.2	674
423.15 K, x2 = 0.1992	–	614.4	622.2	630.6	644.9	656.8	667.1	676.2	684.4
423.15 K, x2 = 0.3968	–	599.1	607.8	617.1	632.5	645.3	656.2	665.7	674.3
423.15 K, x2 = 0.4978	–	589.4	598.8	608.6	624.8	637.9	649	658.8	667.5
423.15 K, x2 = 0.5957	–	578.9	588.9	599.2	616.2	629.8	641.3	651.3	660.2
423.15 K, x2 = 0.7978	–	554.6	566.5	578.7	597.5	612.4	624.8	635.7	645.3
463.15 K, x2 = 0.1992	–	–	586.3	597.8	616.1	630.7	642.9	653.4	662.7
463.15 K, x2 = 0.3968	–	–	570.2	583.3	603.3	618.8	631.7	642.8	652.7
463.15 K, x2 = 0.4978	–	–	559.5	573.5	594.6	610.7	624.1	635.5	645.6
463.15 K, x2 = 0.5957	–	–	547.9	563.1	585.4	602.3	616	627.6	637.9
463.15 K, x2 = 0.7978	–	–	521.1	539.4	565.1	583.8	598.5	611	621.8
